Results on 6 compounds are retold here after ChEMBL document CHEMBL1158236, “Two new naphthoquinones with antiviral activity from Rhinacanthus nasutus” (J Nat Prod, 1996).

What all share (assay type): functional, organism-based
Assay [1] has as its system Respiratory syncytial virus. Put plainly: Antiviral activity against respiratory syncytial virus assessed as effect on virus-induced cytopathic effect. Conditions: human respiratory syncytial virus. (Damage to the host cells serves as the signal in cytopathic effect assays.)
The subject of assay [2] is Murid betaherpesvirus 1. The assay is described as follows: Antiviral activity against mouse cytomegalovirus assessed as effect on virus-induced cytopathic effect.
For assay [3], the system named is Murid betaherpesvirus 1. The assay is described as follows: Antiviral activity against mouse cytomegalovirus by plaque-neutralization assay.
Assay [4] concerns Human betaherpesvirus 5. Put plainly: Antiviral activity against human cytomegalovirus by plaque-neutralization assay.
The test system of assay [5] is Influenza A virus. Put plainly: Antiviral activity against influenza A virus by hemadsorption inhibition assay.
Assay [6] has as its system Human alphaherpesvirus 2. The assay is described as follows: Antiviral activity against herpes simplex virus type 2 assessed as effect on virus-induced cytopathic effect.

Converted amounts (≈) assume the structure as drawn.

In general, EC50 refers to the concentration that produces a half-maximal response. With `NC(=O)c1ncn([C@@H]2O[C@H](CO)[C@@H](O)[C@H]2O)n1` [RIBAVIRIN], the EC50 in assay [1] turned out to be 1.8 µg/mL (≈ 7.37 µM).

On to `CC(C)(COC(=O)c1ccc2c(c1)OCO2)CC1=C(O)C(=O)c2ccccc2C1=O`, for which the EC50 in assay [2] came out at 9.5 µg/mL (≈ 23.3 µM); in assay [3], 9.5 µg/mL (≈ 23.3 µM); in assay [4] it was 0.22 µg/mL (≈ 0.539 µM).

For `NC12CC3CC(CC(C3)C1)C2` [AMANTADINE], in assay [5], the midpoint of the response, the EC50, lay at 0.054 µg/mL (≈ 0.357 µM).

Consider `Nc1nc2c(ncn2COCCO)c(=O)[nH]1` [ACYCLOVIR], for which the EC50 in assay [6] came to 2.3 µg/mL (≈ 10.2 µM).

Turning to `C/C=C(\C)CC/C=C(\C)C(=O)OCC(C)(C)CC1=C(O)C(=O)c2ccccc2C1=O` [RHINACANTHIN C], the EC50 in assay [2] was determined as 1.1 µg/mL (≈ 2.68 µM); in assay [3], 0.57 µg/mL (≈ 1.39 µM); in assay [4] it was 0.02 µg/mL (≈ 0.0487 µM).

For `Nc1nc2c(ncn2COC(CO)CO)c(=O)[nH]1` [GANCICLOVIR], the EC50 was 5 µg/mL (≈ 19.6 µM) in assay [2], 13.8 µg/mL (≈ 54.1 µM) in assay [3] and 3.4 µg/mL (≈ 13.3 µM) in assay [4].
